Experimental data published in patent publication US20220356174A1, “PYRIDIN-2-ONE COMPOUNDS USEFUL AS SMARCA2 ANTAGONISTS” (Epizyme, Inc., priority 2018, published 2022).
Read-outs that look alike come from different tables or passages of the source.

How the values were obtained:
[1] = target: T1, FL-SMARCA2 (full-length human SMARCA2 isoform 1) (Homo sapiens, UniProt P51531); assay: SMARCA2 ATPase activity assay (ADP-Glo, chicken mononucleosome substrate); format: biochemical; conditions: ATP 250 uM
T1 construct: FLAG tag (YKDDDDK) (C); made in house; host or cells: Sf21 insect cells (baculovirus, pFastBacI)
T1 sequence (P51531 with tags, fused parts or gaps): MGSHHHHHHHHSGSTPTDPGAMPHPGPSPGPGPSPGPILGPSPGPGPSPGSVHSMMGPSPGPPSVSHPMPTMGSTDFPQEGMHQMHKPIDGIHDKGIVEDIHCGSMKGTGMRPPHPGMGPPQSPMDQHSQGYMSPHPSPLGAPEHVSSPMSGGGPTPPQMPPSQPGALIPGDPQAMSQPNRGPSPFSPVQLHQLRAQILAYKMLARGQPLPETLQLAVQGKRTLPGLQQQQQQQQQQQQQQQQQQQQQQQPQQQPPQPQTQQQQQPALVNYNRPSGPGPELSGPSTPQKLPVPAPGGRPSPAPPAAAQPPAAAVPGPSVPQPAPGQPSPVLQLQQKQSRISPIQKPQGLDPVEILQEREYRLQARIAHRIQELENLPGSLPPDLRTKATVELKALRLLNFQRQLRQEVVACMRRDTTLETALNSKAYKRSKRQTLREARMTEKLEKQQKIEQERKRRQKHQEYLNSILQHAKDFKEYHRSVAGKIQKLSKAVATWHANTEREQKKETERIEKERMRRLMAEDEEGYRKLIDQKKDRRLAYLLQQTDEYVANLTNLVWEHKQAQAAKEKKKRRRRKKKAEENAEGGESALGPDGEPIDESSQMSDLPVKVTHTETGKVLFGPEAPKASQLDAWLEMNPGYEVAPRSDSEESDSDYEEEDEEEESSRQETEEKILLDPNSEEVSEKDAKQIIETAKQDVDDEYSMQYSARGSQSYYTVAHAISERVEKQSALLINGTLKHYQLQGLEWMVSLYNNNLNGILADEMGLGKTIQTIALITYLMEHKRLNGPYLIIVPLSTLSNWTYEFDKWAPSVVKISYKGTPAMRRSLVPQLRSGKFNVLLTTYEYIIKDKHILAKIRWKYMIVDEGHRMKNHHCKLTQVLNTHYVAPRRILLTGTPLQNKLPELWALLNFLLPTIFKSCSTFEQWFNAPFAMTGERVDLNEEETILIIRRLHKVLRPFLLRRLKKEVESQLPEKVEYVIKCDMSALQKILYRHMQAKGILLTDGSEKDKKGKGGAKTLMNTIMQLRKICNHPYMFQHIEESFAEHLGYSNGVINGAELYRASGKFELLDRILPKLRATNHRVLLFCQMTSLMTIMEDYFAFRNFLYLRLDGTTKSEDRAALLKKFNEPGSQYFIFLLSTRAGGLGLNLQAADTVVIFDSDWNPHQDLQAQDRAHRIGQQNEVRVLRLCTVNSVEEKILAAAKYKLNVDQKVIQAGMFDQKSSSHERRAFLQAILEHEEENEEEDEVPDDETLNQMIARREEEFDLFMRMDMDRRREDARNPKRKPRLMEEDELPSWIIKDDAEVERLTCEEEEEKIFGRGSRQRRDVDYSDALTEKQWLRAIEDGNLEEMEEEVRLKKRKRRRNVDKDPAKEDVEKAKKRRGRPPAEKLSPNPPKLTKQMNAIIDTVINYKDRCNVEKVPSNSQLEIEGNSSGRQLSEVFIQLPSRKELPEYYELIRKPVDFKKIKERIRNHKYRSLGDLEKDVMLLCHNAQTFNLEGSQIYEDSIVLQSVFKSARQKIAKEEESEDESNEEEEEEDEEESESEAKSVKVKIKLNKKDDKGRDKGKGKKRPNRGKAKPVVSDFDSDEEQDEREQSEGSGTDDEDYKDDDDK
Source text: Molecular Biology: Full-length human SMARCA2 isoform 1 (P51531) transcript clone was amplified from a cDNA library incorporating an N-terminal HIS tag ([…]) fused directly to Ser2 of SMARCA2 and a C-FLAG tag (YKDDDDK) fused directly to Glu1590 of SMARCA2. The amplified gene was subcloned into pFastBacI (Life Technologies).
Protein Expression: Recombinant baculovirus were generated and protein over-expression was accomplished by infecting exponentially growing Sf21 insect cell culture at 1.24×10^6 cell/ml with an MOI of 0.1. Infections were carried out for 76 hours, harvested by centrifugation, and stored at −80° C. for purification.
Expressed full-length SMARCA2 was purified from cell paste by FLAG affinity chromatography followed by anion exchange chromatography. The protein was dialyzed into a storage buffer containing 25 mM HEPES, 300 mM KCl, 10% Glycerol, pH 7.9, 1 mM TCEP and 0.01% Tween-20. The purity of the protein was measured as 74% using micro-capillary based gel electrophoresis.

FL-SMARCA4 = FL-SMARCA4 (Homo sapiens, UniProt P51532); assay: SMARCA4 ATPase activity assay (ADP-Glo, chicken mononucleosome substrate)
Chain of FL-SMARCA4 (P51532 whole entry): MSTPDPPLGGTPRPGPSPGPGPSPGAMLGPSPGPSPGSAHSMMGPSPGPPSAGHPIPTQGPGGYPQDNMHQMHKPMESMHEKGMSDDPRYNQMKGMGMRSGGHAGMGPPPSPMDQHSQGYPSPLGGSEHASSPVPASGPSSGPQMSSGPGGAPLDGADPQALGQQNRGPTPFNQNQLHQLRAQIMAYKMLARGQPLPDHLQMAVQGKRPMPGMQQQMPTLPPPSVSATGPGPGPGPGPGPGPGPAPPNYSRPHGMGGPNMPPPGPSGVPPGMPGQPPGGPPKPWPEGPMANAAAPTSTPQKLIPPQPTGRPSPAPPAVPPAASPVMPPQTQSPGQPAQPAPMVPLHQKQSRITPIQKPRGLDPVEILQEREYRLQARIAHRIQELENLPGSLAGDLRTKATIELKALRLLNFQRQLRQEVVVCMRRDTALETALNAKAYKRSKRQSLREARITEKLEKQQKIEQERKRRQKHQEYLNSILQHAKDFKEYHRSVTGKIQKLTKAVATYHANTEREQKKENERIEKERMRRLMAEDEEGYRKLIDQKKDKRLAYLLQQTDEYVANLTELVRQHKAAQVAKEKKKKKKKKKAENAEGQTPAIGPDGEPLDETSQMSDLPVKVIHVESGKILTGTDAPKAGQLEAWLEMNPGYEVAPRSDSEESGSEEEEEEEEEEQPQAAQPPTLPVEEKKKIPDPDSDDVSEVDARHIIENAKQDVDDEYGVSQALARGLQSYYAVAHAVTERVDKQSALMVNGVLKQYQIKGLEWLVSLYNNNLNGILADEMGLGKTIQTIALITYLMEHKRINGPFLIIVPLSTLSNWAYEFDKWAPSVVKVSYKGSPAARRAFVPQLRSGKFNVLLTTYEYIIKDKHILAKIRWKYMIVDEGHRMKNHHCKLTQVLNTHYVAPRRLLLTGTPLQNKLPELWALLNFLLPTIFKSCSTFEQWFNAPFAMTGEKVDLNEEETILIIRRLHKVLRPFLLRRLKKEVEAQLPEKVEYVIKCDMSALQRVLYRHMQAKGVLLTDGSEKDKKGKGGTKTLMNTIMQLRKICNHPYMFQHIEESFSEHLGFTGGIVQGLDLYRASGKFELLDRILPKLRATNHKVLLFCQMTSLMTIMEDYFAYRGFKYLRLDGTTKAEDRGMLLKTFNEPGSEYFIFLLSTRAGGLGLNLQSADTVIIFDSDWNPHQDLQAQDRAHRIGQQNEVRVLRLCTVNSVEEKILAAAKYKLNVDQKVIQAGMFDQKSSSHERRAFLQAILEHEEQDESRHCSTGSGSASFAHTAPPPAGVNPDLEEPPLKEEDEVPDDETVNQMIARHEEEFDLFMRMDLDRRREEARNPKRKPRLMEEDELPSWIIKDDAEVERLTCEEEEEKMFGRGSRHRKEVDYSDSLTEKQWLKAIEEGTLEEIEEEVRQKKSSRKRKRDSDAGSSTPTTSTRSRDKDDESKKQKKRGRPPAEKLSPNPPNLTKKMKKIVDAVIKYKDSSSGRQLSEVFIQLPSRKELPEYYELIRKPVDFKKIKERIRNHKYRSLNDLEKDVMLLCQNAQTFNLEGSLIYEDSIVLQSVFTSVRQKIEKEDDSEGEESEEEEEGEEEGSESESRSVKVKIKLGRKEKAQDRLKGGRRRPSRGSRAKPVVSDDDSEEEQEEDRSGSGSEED

[2] = Table 3a.1, SMARCA2 5 nM, mononucleosome 10 nM
[3] = FL-SMARCA4 IC50, Table 3a.2, SMARCA4 5 nM, ATP 250 uM, mononucleosome 10 nM
[4] = Table 3d.1, ATPase assay, enzyme 5 nM, chicken mononucleosome 10 nM, 30 min preincubation, read-out: FL-SMARCA2 IC>50
[5] = Table 3.1, ATPase assay, enzyme 5 nM, chicken mononucleosome 10 nM, 30 min preincubation
[6] = FL-SMARCA4 IC50, Table 3.2, ATPase assay, enzyme 5 nM, ATP 250 uM, chicken mononucleosome 10 nM, 30 min preincubation
[7] = Table 3c.1, ATPase assay, enzyme 5 nM, chicken mononucleosome 10 nM, 30 min preincubation
[8] = FL-SMARCA4 IC>50, Table 3c.2, ATPase assay, enzyme 5 nM, ATP 250 uM, chicken mononucleosome 10 nM, 30 min preincubation

Row | Compound | IC50 [1, 2] [µM] | IC50 (FL-SMARCA4; [3]) [µM] | IC50 [1, 4] [µM] | IC50 (FL-SMARCA4; FL-SMARCA4 IC50) [µM] | other results
1 | CCn1cc(NC(=O)c2ccc(Cl)c(C)n2)ccc1=O [Compound 35a] | > 50 | > 50 |  |  | 
2 | NC(=O)c1cc(C(=O)Nc2cc(F)c(=O)n(CC(F)F)c2)sc1C(F)(F)F [Compound 35d] |  |  | > 50 | > 50 | 
3 | CCn1cc(NC(=O)c2nc(Br)sc2C)ccc1=O [Compound 36] |  |  |  |  | IC50 [1, 5]: > 50 µM; IC50 (FL-SMARCA4; [6]): > 50 µM
4 | CCn1cc(NC(=O)c2cc3ccccc3s2)ccc1=O [Compound 36a] | > 50 | > 50 |  |  | 
5 | O=C(Nc1cc(F)c(=O)n(CC(F)F)c1)c1cc(C2COC2)cs1 [Compound 36c] |  |  |  |  | IC50 [1, 7]: > 50 µM; IC50 (FL-SMARCA4; [8]): > 50 µM
6 | CN(C)C(=O)c1cc(C(=O)Nc2cc(F)c(=O)n(CC(F)F)c2)sc1C(F)(F)F [Compound 36d] |  |  | 36.5 | > 50 | 
7 | Cn1c(C(=O)Nc2ccc(=O)[nH]c2)cc(Cl)c1Cl [Compound 37] |  |  |  |  | IC50 [1, 5]: > 50 µM; IC50 (FL-SMARCA4; [6]): > 50 µM
8 | CCn1cc(NC(=O)c2ccc3c(n2)OCO3)ccc1=O [Compound 37a] | > 50 | > 50 |  |  | 
9 | O=C(Nc1cc(F)c(=O)n(CC(F)F)c1)c1coc(Cl)n1 [Compound 37d] |  |  | > 50 | > 50 | 
10 | Cn1cncc1-c1cc(NC(=O)c2sc(C(F)(F)F)cc2Cl)cn(CC(F)F)c1=O [Compound 38c] |  |  |  |  | IC50 [1, 7]: > 50 µM; IC50 (FL-SMARCA4; [8]): > 50 µM
11 | CCn1cc(NC(=O)c2ccc(Cl)s2)ccc1=O [Compound 40] |  |  |  |  | IC50 [1, 5]: 2.63 µM; IC50 (FL-SMARCA4; [6]): 11.6 µM
12 | CCn1cc(NC(=O)c2cc(Cl)cs2)ccc1=O [Compound 44] |  |  |  |  | IC50 [1, 5]: > 50 µM; IC50 (FL-SMARCA4; [6]): > 50 µM
13 | COc1ccc(C#Cc2cc(C(=O)Nc3cc(F)c(=O)n(CC(F)F)c3)sc2Cl)cc1 [Compound 44c] |  |  |  |  | IC50 [1, 7]: 1.04 µM; IC50 (FL-SMARCA4; [8]): 2.19 µM
14 | O=C(Nc1ccc(=O)n(CC(F)F)c1)c1sc(C(F)(F)F)cc1Cl [Compound 46c] |  |  |  |  | IC50 [1, 7]: > 50 µM; IC50 (FL-SMARCA4; [8]): > 50 µM

Second part, led by results:

Row | IC50 [1, 2] [µM] | IC50 (FL-SMARCA4; [3]) [µM] | IC50 [1, 4] [µM] | IC50 (FL-SMARCA4; FL-SMARCA4 IC50) [µM] | Compound | other results
15 | > 50 | > 50 |  |  | CCn1cc(NC(=O)c2ccc3cn[nH]c3n2)ccc1=O [Compound 38a] | 
16 |  |  | > 50 | > 50 | O=C(Nc1cc(F)c(=O)n(CC(F)F)c1)c1n[nH]c(Cl)n1 [Compound 38d] | 
17 | > 50 | > 50 |  |  | CCn1cc(NC(=O)n2cc3ccccc3n2)ccc1=O [Compound 39a] | 
18 |  |  | > 50 | > 50 | O=C(Nc1cc(F)c(=O)n(CC(F)F)c1)c1nc(Cl)c(Cl)[nH]1 [Compound 39d] | 
19 | > 50 | > 50 |  |  | CCn1cc(NC(=O)c2sc3ccccc3c2C)ccc1=O [Compound 40a] | 
20 |  |  | > 50 | > 50 | COc1cc(Cl)c(Cl)cc1C(=O)Nc1cc(F)c(=O)n(CC(F)F)c1 [Compound 40d] | 
21 | > 50 | > 50 |  |  | O=C(Nc1ccc(=O)n(CC(F)(F)F)c1)c1nc2cc(F)c(Cl)cc2[nH]1 [Compound 41a] | 
22 |  |  | > 50 | > 50 | COc1ncc(F)cc1C(=O)Nc1cc(F)c(=O)n(CC(F)F)c1 [Compound 41d] | 
23 | 13.2 | > 50 |  |  | CCn1cc(NC(=O)c2nc3cc(Cl)c(Cl)cc3[nH]2)ccc1=O [Compound 42a] | 
24 |  |  | 27.6 | > 50 | COc1ncc(C(=O)Nc2cc(F)c(=O)n(CC(F)F)c2)cc1F [Compound 42d] | 
25 | > 50 | > 50 |  |  | O=C(Nc1ccc(=O)n(CC(F)(F)F)c1)c1nc2cc(Cl)c(Cl)cc2[nH]1 [Compound 43a] | 
26 |  |  | > 50 | > 50 | N#Cc1nc(C(=O)Nc2cc(F)c(=O)n(CC(F)F)c2)co1 [Compound 43d] | 
27 | 42.5 | > 50 |  |  | O=C(Nc1ccc(=O)n(CC(F)(F)F)c1)c1nc2cc(F)c(Cl)cc2s1 [Compound 44a] | 
28 |  |  | 29.5 | > 50 | O=C(Nc1cc(F)c(=O)n(CC(F)F)c1)c1cc(Cl)on1 [Compound 44d] | 
29 | > 50 | > 50 |  |  | CCn1cc(NC(=O)c2cn3cc(Cl)c(F)cc3n2)ccc1=O [Compound 45a] | 
30 |  |  | > 50 | > 50 | CN(C)CC#Cc1cc(NC(=O)c2cc(F)c(Cl)s2)cn(CC(F)F)c1=O [Compound 45d] | 
31 | 42.7 | 41.1 |  |  | CCn1cc(NC(=O)c2nc3cc(F)c(Cl)cc3s2)ccc1=O [Compound 46a] | 
32 |  |  | > 50 | > 50 | COc1c(C(=O)Nc2cc(F)c(=O)n(CC(F)F)c2)sc(Cl)c1Cl [Compound 46d] | 
